Measurements as given in US20230040770A1, “HETEROCYCLIC COMPOUND AND USE THEREOF” (TAKEDA PHARMACEUTICAL COMPANY LIMITED, priority 2019, published 2023).

Molecular target: T1, human orexin type 2 receptor (Homo sapiens, UniProt O43614)
T1 construct: expressed in transfected cells
T1 sequence (O43614 1-444): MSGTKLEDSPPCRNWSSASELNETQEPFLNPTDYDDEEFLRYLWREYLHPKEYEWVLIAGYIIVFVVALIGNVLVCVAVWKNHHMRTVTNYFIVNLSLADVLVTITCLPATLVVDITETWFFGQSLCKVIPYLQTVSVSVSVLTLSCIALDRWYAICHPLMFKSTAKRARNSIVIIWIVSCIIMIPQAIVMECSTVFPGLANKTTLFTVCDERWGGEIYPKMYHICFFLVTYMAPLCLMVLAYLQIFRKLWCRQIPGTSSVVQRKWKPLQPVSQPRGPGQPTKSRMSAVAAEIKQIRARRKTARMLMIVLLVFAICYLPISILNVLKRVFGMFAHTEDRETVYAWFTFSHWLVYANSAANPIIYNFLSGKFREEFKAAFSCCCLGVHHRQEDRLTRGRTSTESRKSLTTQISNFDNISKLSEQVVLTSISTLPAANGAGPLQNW
Experiment: Measurement of orexin type 2 receptor agonist activity (calcium indicator fluorescence, CHO cells forcibly expressing human OX2 receptor)
Assay type: cell-based
Settings: compound at 3 μM; 0% = DMSO, 100% = orexin A (human) 10 nM
Method in brief: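 Agonist response normalised between vehicle (0%) and orexin A at 10 nM final (100%), from kinetic Fluo-4 calcium signals recorded for about 2 min after compound addition. Cells: stable human OX2R CHO clone, dye-loaded 30 min at 37 °C plus 30 min at room temperature.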

OX2R agonist activity (3 μM, %) [%] | Compound
80 | CCS(=O)(=O)N[C@@H]1[C@H](Cc2cccc(-c3cccc(F)c3F)c2F)N(C(=O)N2CCC2)CC1(F)F [Example 289, N-{(2S,3R)-1-(azetidine-1-carbonyl)-4,4-difluoro-2-[(2,2′,3′-trifluoro[1,1′-biphenyl]-3-yl)methyl]pyrrolidin-3-yl}ethanesulfonamide]
100 | CCS(=O)(=O)N[C@H]1[C@@H](F)CN(C(=O)C2CCO2)[C@H]1Cc1cccc(-c2cccc(F)c2F)c1F (stereo partly drawn) [Example 307, N-{(2S,3R,4S)-4-fluoro-1-(oxetane-2-carbonyl)-2-[(2,2′,3′-trifluoro[1,1′-biphenyl]-3-yl)methyl]pyrrolidin-3-yl}ethanesulfonamide]
98 | CS(=O)(=O)N[C@@H]1[C@H](Cc2cccc(-c3cccc(Cl)c3F)c2F)N(C(=O)C2CCO2)CC1(F)F (stereo partly drawn) [Example 264, N-[(2S,3R)-2-[(3′-chloro-2,2′-difluoro[1,1′-biphenyl]-3-yl)methyl]-4,4-difluoro-1-(oxetane-2-carbonyl)pyrrolidin-3-yl]methanesulfonamide]
83 | CS(=O)(=O)N[C@@H]1[C@H](Cc2cccc(-c3cc(F)cc(Cl)c3)c2F)N(C(=O)C2CCO2)CC1(F)F (stereo partly drawn) [Example 266, N-[(2S,3R)-2-[(3′-chloro-2,5′-difluoro[1,1′-biphenyl]-3-yl)methyl]-4,4-difluoro-1-(oxetane-2-carbonyl)pyrrolidin-3-yl]methanesulfonamide]
100 | Cc1cc(F)cc(-c2cccc(C[C@H]3[C@@H](NS(=O)(=O)N(C)C)C(F)(F)CN3C(=O)[C@H]3CCO3)c2F)c1 [Example 540, N′-{(2S,3R)-2-[(2,3′-difluoro-5′-methyl[1,1′-biphenyl]-3-yl)methyl]-4,4-difluoro-1-[(2R)-oxetane-2-carbonyl]pyrrolidin-3-yl}-N,N-dimethylsulfuric diamide]
96 | CCS(=O)(=O)N[C@H]1[C@@H](F)CN(C(=O)C2CCO2)[C@H]1Cc1cccc(-c2cccc(C)c2F)c1F (stereo partly drawn) [Example 499, N-[(2S,3R,4S)-2-[(2,2′-difluoro-3′-methyl[1,1′-biphenyl]-3-yl)methyl]-4-fluoro-1-(oxetane-2-carbonyl)pyrrolidin-3-yl]ethanesulfonamide]
93 | CS(=O)(=O)N[C@@H]1[C@H](Cc2cccc(-c3ccccc3)c2F)N(C(=O)C23CC(C2)C3)CC1(F)F [Example 78, N-{(2S,3R)-1-(bicyclo[1.1.1]pentane-1-carbonyl)-4,4-difluoro-2-[(2-fluoro[1,1′-biphenyl]-3-yl)methyl]pyrrolidin-3-yl}methanesulfonamide]
92 | CCS(=O)(=O)N[C@@H]1[C@H](Cc2cccc(-c3cccc(Cl)c3)c2F)N(C(=O)C2CCO2)CC1(F)F (stereo partly drawn) [Example 267, N-[(2S,3R)-2-[(3′-chloro-2-fluoro[1,1′-biphenyl]-3-yl)methyl]-4,4-difluoro-1-(oxetane-2-carbonyl)pyrrolidin-3-yl]ethanesulfonamide]
87 | CS(=O)(=O)N[C@@H]1[C@H](Cc2csc(-c3cc(F)cc(F)c3)n2)N(C(=O)C2(O)CCC2)CC1(F)F (racemic) [Example 136, rac-N-[(2S,3R)-2-{[2-(3,5-difluorophenyl)-1,3-thiazol-4-yl]methyl}-4,4-difluoro-1-(1-hydroxycyclobutane-1-carbonyl)pyrrolidin-3-yl]methanesulfonamide]
92 | CS(=O)(=O)N[C@@H]1[C@H](Cc2cccc(-c3cccc(F)c3F)c2F)N(C(=O)C2CC(F)C2)CC1(F)F (stereo partly drawn) [Example 436, N-{(2S,3R)-4,4-difluoro-1-(3-fluorocyclobutane-1-carbonyl)-2-[(2,2′,3′-trifluoro[1,1′-biphenyl]-3-yl)methyl]pyrrolidin-3-yl}methanesulfonamide]
96 | CS(=O)(=O)N[C@@H]1[C@H](Cc2cccc(-c3cccc(F)c3F)c2F)N(C(=O)[C@@H]2CCO2)CC1(F)F [Example 133, N-{(2S,3R)-4,4-difluoro-1-((2S)-oxetane-2-carbonyl)-2-[(2,2′,3′-trifluoro[1,1′-biphenyl]-3-yl)methyl]pyrrolidin-3-yl}methanesulfonamide]
100 | CCS(=O)(=O)N[C@@H]1[C@H](Cc2cccc(-c3cccc(C)c3F)c2F)N(C(=O)C(C)(C)O)CC1(F)F [Example 65, N-[(2S,3R)-2-[(2,2′-difluoro-3′-methyl[1,1′-biphenyl]-3-yl)methyl]-4,4-difluoro-1-(2-hydroxy-2-methylpropanoyl)pyrrolidin-3-yl]ethanesulfonamide]
99 | CN(C)S(=O)(=O)N[C@@H]1[C@H](Cc2cccc(-c3ccccc3)c2F)N(C(=O)C2(O)CCC2)CC1(F)F [Example 145, N′-[(2S,3R)-4,4-difluoro-2-[(2-fluoro[1,1′-biphenyl]-3-yl)methyl]-1-(1-hydroxycyclobutane-1-carbonyl)pyrrolidin-3-yl]-N,N-dimethylsulfuric diamide]
101 | Cc1cccc(-c2cccc(C[C@H]3[C@@H](NS(=O)(=O)N(C)C)C(F)(F)CN3C(=O)[C@H]3CCO3)c2F)c1F [Example 539, N′-{(2S,3R)-2-[(2,2′-difluoro-3′-methyl[1,1′-biphenyl]-3-yl)methyl]-4,4-difluoro-1-[(2R)-oxetane-2-carbonyl]pyrrolidin-3-yl}-N,N-dimethylsulfuric diamide]
105 | CC(C)C(=O)N1CC(F)(F)[C@H](NS(=O)(=O)C2CC2)[C@@H]1Cc1cccc(-c2cccc(F)c2)c1F [Example 163, N-[(2S,3R)-2-[(2,3′-difluoro[1,1′-biphenyl]-3-yl)methyl]-4,4-difluoro-1-(2-methylpropanoyl)pyrrolidin-3-yl]cyclopropanesulfonamide]
95 | CCS(=O)(=O)N[C@H]1[C@@H](F)CN(C(=O)C2CCO2)[C@H]1Cc1cccc(-c2cccc(F)c2)c1F (stereo partly drawn) [Example 216, N-[(2S,3R,4S)-2-[(2,3′-difluoro[1,1′-biphenyl]-3-yl)methyl]-4-fluoro-1-(oxetane-2-carbonyl)pyrrolidin-3-yl]ethanesulfonamide]
89 | CCS(=O)(=O)N[C@H]1[C@@H](F)CN(C(=O)C23CC(C2)C3)[C@H]1Cc1cccc(-c2cc(F)ccc2F)c1F [Example 306, N-{(2S,3R,4S)-1-(bicyclo[1.1.1]pentane-1-carbonyl)-4-fluoro-2-[(2,2′,5′-trifluoro[1,1′-biphenyl]-3-yl)methyl]pyrrolidin-3-yl}ethanesulfonamide]
97 | CCS(=O)(=O)N[C@@H]1[C@H](Cc2cccc(-c3ccccc3)c2F)N(C(=O)C(C)C)CC1(F)F [Example 106, N-[(2S,3R)-4,4-difluoro-2-[(2-fluoro[1,1′-biphenyl]-3-yl)methyl]-1-(2-methylpropanoyl)pyrrolidin-3-yl]ethanesulfonamide]
98 | CN(C)S(=O)(=O)N[C@@H]1[C@H](Cc2cccc(-c3cccc(F)c3)c2F)N(C(=O)N2CCC2)CC1(F)F [Example 547, N′-{(2S,3R)-1-(azetidine-1-carbonyl)-2-[(2,3′-difluoro[1,1′-biphenyl]-3-yl)methyl]-4,4-difluoropyrrolidin-3-yl}-N,N-dimethylsulfuric diamide]
96 | Cc1cc(F)cc(-c2cccc(C[C@H]3[C@@H](NS(=O)(=O)N(C)C)C(F)(F)CN3C(=O)N3CCC3)c2F)c1 [Example 546, N′-{(2S,3R)-1-(azetidine-1-carbonyl)-2-[(2,3′-difluoro-5′-methyl[1,1′-biphenyl]-3-yl)methyl]-4,4-difluoropyrrolidin-3-yl}-N,N-dimethylsulfuric diamide]
94 | CCS(=O)(=O)N[C@@H]1[C@H](Cc2cccc(-c3ccccc3)c2F)N(C(=O)[C@H]2C[C@@H](F)C2)CC1(F)F [Example 383, N-[(2S,3R)-4,4-difluoro-2-[(2-fluoro[1,1′-biphenyl]-3-yl)methyl]-1-((1s,3R)-3-fluorocyclobutane-1-carbonyl)pyrrolidin-3-yl]ethanesulfonamide]
88 | O=C(C1CC1)N1C[C@H](F)[C@H](NS(=O)(=O)C2CC2)[C@@H]1Cc1cccc(-c2cc(F)cc(F)c2)c1F [Example 373, N-{(2S,3R,4S)-1-(cyclopropanecarbonyl)-4-fluoro-2-[(2,3′,5′-trifluoro[1,1′-biphenyl]-3-yl)methyl]pyrrolidin-3-yl}cyclopropanesulfonamide]
87 | CCS(=O)(=O)N[C@H]1[C@@H](F)CN(C(=O)C(C)C)[C@H]1Cc1cccc(-c2cc(F)ccc2F)c1F [Example 292, N-{(2S,3R,4S)-4-fluoro-1-(2-methylpropanoyl)-2-[(2,2′,5′-trifluoro[1,1′-biphenyl]-3-yl)methyl]pyrrolidin-3-yl}ethanesulfonamide]
95 | CN(C)S(=O)(=O)N[C@@H]1[C@H](Cc2cccc(-c3cccc(F)c3F)c2F)N(C(=O)C2(O)CCC2)CC1(F)F [Example 438, N′-{(2S,3R)-4,4-difluroo-1-(1-hydroxycyclobutane-1-carbonyl)-2-[(2,2′,3′-trifluoro[1,1′-biphenyl]-3-yl)methyl]pyrrolidin-3-yl}-N,N-dimethylsulfuric diamide]
